Assay results reported in ChEMBL document CHEMBL3885881, “DrugMatrix”.
Several values for one entry are separate records, joined by “and”; a condition that tells them apart may be missing. Equal entries are not always repeated.

Species: Rattus norvegicus
Experiment: DrugMatrix - Regimen: Daily Repeat
Assay type: toxicity, organism-based, Sprague-Dawley
Parameters: regimen Daily Repeat, gender Male, age 6-8 weeks
Details: in vivo, ip, route intraperitoneal, vehicle 100 % SALINE; for ABSOLUTE BASOPHIL / ABSOLUTE EOSINOPHIL / ABSOLUTE LYMPHOCYTE / ABSOLUTE MONOCYTE / ABSOLUTE SEGMENTED NEUTROPHIL / BASOPHIL / EOSINOPHIL / ERYTHROCYTE COUNT / HEMATOCRIT / HEMOGLOBIN / LEUKOCYTE COUNT / LYMPHOCYTE / MEAN CORPUSCULAR HEMOGLOBIN / MEAN CORPUSCULAR HEMOGLOBIN CONCENTRATION / MEAN CORPUSCULAR VOLUME / MONOCYTE / NEUTROPHIL / PLATELET COUNT: tissue Blood; for ALANINE AMINOTRANSFERASE / ALBUMIN / ALKALINE PHOSPHATASE / ASPARTATE AMINOTRANSFERASE / BLOOD UREA NITROGEN / CARBON DIOXIDE / CHOLESTEROL / CREATINE PHOSPHOKINASE / CREATININE / GLUCOSE / LACTATE DEHYDROGENASE / LIPASE / PHOSPHORUS / POTASSIUM / SODIUM / TOTAL BILIRUBIN / TOTAL PROTEIN / URIC ACID / CHLORIDE: tissue Plasma
[1] = 0 mg/kg, 120 h, dose level Control, time 5 day
[2] = 0 mg/kg, […], dose level Control, time 14 day
[3] = 0 mg/kg, […], dose level Control, time 28 day
[4] = 40 mg/kg, 120 h, dose level High, time 5 day

Sequence: GENTAMICIN
- ABSOLUTE BASOPHIL [1]: 32 cells/µL
- ABSOLUTE EOSINOPHIL [1]: 110 cells/µL
- ABSOLUTE LYMPHOCYTE [1]: 6630 cells/µL
- ABSOLUTE MONOCYTE [1]: 140 cells/µL
- ABSOLUTE SEGMENTED NEUTROPHIL [1]: 1170 cells/µL
- BASOPHIL [1]: 0.38% and 0.35%
- EOSINOPHIL [1]: 1.28% and 0.62%
- ERYTHROCYTE COUNT [1]: 7.45 x10E6/uL and 7.26 x10E6/uL
- HEMATOCRIT [1]: 45.74% and 47.97%
- HEMOGLOBIN [1]: 14.72 G/DL and 15.38 G/DL
- LEUKOCYTE COUNT [1]: 8.11 x10E3/uL and 8.68 x10E3/uL
- LYMPHOCYTE [1]: 81.3% and 86.77%
- MEAN CORPUSCULAR HEMOGLOBIN [1]: 19.76 pg and 21.18 pg
- MEAN CORPUSCULAR HEMOGLOBIN CONCENTRATION [1]: 32.16 G/DL and 32.05 G/DL
- MEAN CORPUSCULAR VOLUME [1]: 61.38 fL and 66.15 fL
- MONOCYTE [1]: 1.76% and 1.57%
- NEUTROPHIL [1]: 14.9% and 9.53%
- PLATELET COUNT [1]: 1322.4 x10E3/uL and 1786 x10E3/uL
- ALANINE AMINOTRANSFERASE [1]: 25.8 u/L and 20.5 u/L
- ALBUMIN [1]: 3.64 G/DL and 4.35 G/DL
- ALKALINE PHOSPHATASE [1]: 300 u/L
- ASPARTATE AMINOTRANSFERASE [1]: 81.4 u/L and 86.75 u/L
- BLOOD UREA NITROGEN [1]: 14.4 mg/dL and 17 mg/dL
- CARBON DIOXIDE [1]: 29 mmol/L
- CHOLESTEROL [1]: 69.2 mg/dL and 51.25 mg/dL
- CREATINE PHOSPHOKINASE [1]: 303.2 u/L and 384.75 u/L
- CREATININE [1]: 0.56 mg/dL and 0.47 mg/dL
- GLUCOSE [1]: 125.4 mg/dL and 128.75 mg/dL
- LACTATE DEHYDROGENASE [1]: 105.4 u/L and 145 u/L
- LIPASE [1]: 22.4 u/L and 13.25 u/L
- PHOSPHORUS [1]: 11.8 mg/dL
- POTASSIUM [1]: 5.52 MEQ/L and 6.58 MEQ/L
- SODIUM [1]: 147 MEQ/L and 151 MEQ/L
- TOTAL BILIRUBIN [1]: 0.2 mg/dL and 0.33 mg/dL
- TOTAL PROTEIN [1]: 6.1 G/DL and 6.53 G/DL
- URIC ACID [1]: 1.06 mg/dL and 1.95 mg/dL
- ABSOLUTE BASOPHIL [2]: 130 cells/µL
- ABSOLUTE EOSINOPHIL [2]: 140 cells/µL
- ABSOLUTE LYMPHOCYTE [2]: 13500 cells/µL
- ABSOLUTE MONOCYTE [2]: 400 cells/µL
- ABSOLUTE SEGMENTED NEUTROPHIL [2]: 2330 cells/µL
- HEMATOCRIT [2]: 45.98%
- HEMOGLOBIN [2]: 15.17 G/DL
- MEAN CORPUSCULAR VOLUME [2]: 59.4 fL
- NEUTROPHIL [2]: 14.14%
- ABSOLUTE BASOPHIL [3]: 91 cells/µL
- ABSOLUTE EOSINOPHIL [3]: 110 cells/µL
- ABSOLUTE LYMPHOCYTE [3]: 9910 cells/µL
- ABSOLUTE MONOCYTE [3]: 210 cells/µL
- ABSOLUTE SEGMENTED NEUTROPHIL [3]: 1560 cells/µL
- BASOPHIL [3]: 0.77%
- EOSINOPHIL [3]: 0.92%
- ERYTHROCYTE COUNT [3]: 8.21 x10E6/uL
- HEMATOCRIT [3]: 47.53%
- HEMOGLOBIN [3]: 15.65 G/DL
- LEUKOCYTE COUNT [3]: 11.91 x10E3/uL
- LYMPHOCYTE [3]: 83.34%
- MEAN CORPUSCULAR HEMOGLOBIN [3]: 19.07 pg
- MEAN CORPUSCULAR HEMOGLOBIN CONCENTRATION [3]: 32.93 G/DL
- MEAN CORPUSCULAR VOLUME [3]: 57.9 fL
- MONOCYTE [3]: 1.68%
- NEUTROPHIL [3]: 12.97%
- PLATELET COUNT [3]: 1323.8 x10E3/uL
- ALBUMIN [2]: 3.66 G/DL
- CARBON DIOXIDE [2]: 25 mmol/L
- CHLORIDE [2]: 107 MEQ/L
- CREATINE PHOSPHOKINASE [2]: 410.25 u/L
- SODIUM [2]: 149.2 MEQ/L
- URIC ACID [2]: 0.94 mg/dL
- ALANINE AMINOTRANSFERASE [3]: 30 u/L
- ALBUMIN [3]: 3.71 G/DL
- ALKALINE PHOSPHATASE [3]: 186.8 u/L
- ASPARTATE AMINOTRANSFERASE [3]: 78.2 u/L
- BLOOD UREA NITROGEN [3]: 14.2 mg/dL
- CHOLESTEROL [3]: 44.9 mg/dL
- CREATINE PHOSPHOKINASE [3]: 334.3 u/L
- CREATININE [3]: 0.6 mg/dL
- GLUCOSE [3]: 147.2 mg/dL
- LACTATE DEHYDROGENASE [3]: 123.1 u/L
- LIPASE [3]: 9.6 u/L
- PHOSPHORUS [3]: 10.01 mg/dL
- POTASSIUM [3]: 6.57 MEQ/L
- SODIUM [3]: 149.5 MEQ/L
- TOTAL BILIRUBIN [3]: 0.21 mg/dL
- TOTAL PROTEIN [3]: 6.66 G/DL
- URIC ACID [3]: 1.26 mg/dL
- ABSOLUTE BASOPHIL [4]: 80 cells/µL
- ABSOLUTE EOSINOPHIL [4]: 74 cells/µL
- ABSOLUTE LYMPHOCYTE [4]: 8100 cells/µL
- ABSOLUTE MONOCYTE [4]: 240 cells/µL
- ABSOLUTE SEGMENTED NEUTROPHIL [4]: 1450 cells/µL
- BASOPHIL [4]: 0.76% and 0.38%
- EOSINOPHIL [4]: 0.78% and 0.9%
- ERYTHROCYTE COUNT [4]: 6.83 x10E6/uL and 7.91 x10E6/uL
- HEMATOCRIT [4]: 41.68% and 49.95%
- HEMOGLOBIN [4]: 15.98 G/DL
- LEUKOCYTE COUNT [4]: 10.02 x10E3/uL and 8.78 x10E3/uL
- LYMPHOCYTE [4]: 80.04% and 84.55%
- MEAN CORPUSCULAR HEMOGLOBIN [4]: 20.3 pg and 20.2 pg
- MEAN CORPUSCULAR HEMOGLOBIN CONCENTRATION [4]: 33.3 G/DL and 31.98 G/DL
- MEAN CORPUSCULAR VOLUME [4]: 61 fL
- MONOCYTE [4]: 2.58% and 2.52%
- NEUTROPHIL [4]: 15.12% and 10.23%
- PLATELET COUNT [4]: 1275.4 x10E3/uL and 1549.75 x10E3/uL
- ALANINE AMINOTRANSFERASE [4]: 28.6 u/L and 25 u/L
- ALBUMIN [4]: 3.36 G/DL and 4.35 G/DL
- ALKALINE PHOSPHATASE [4]: 214.2 u/L and 307.5 u/L
- ASPARTATE AMINOTRANSFERASE [4]: 87.2 u/L and 90.25 u/L
- BLOOD UREA NITROGEN [4]: 15 mg/dL and 15.25 mg/dL
- CARBON DIOXIDE [4]: 25.75 mmol/L
- CHLORIDE [4]: 107.4 MEQ/L
- CHOLESTEROL [4]: 60.8 mg/dL and 65.25 mg/dL
- CREATINE PHOSPHOKINASE [4]: 313.5 u/L and 416.75 u/L
- CREATININE [4]: 0.44 mg/dL and 0.45 mg/dL
- GLUCOSE [4]: 128 mg/dL and 118.5 mg/dL
- LACTATE DEHYDROGENASE [4]: 133.8 u/L and 153 u/L
